# Measured values from patent US11180462B2, “Microbiocidal oxadiazole derivatives” (SYNGENTA PARTICIPATIONS AG, priority 2015, dated 2021).
# Tested on: Glomerella lagenarium (Colletotrichum lagenarium)
# Test: Fungicidal activity against Glomerella lagenarium (Colletotrichum lagenarium) liquid culture / cucumber / preventative (anthracnose)
# Assay type: cell-based
# Details: Colletotrichum orbiculare; 20 ppm in the applied formulation; liquid culture (PDB), growth inhibition measured photometrically after 3 to 4 days; compared to untreated control; read-out: disease control
# Outline: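 Percent activity against the untreated check was derived from photometric growth measurements made 2 to 7 days after conidia in potato dextrose broth were combined with compound at 20 ppm. Cultures were kept dark at 24 °C and 96% humidity.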
row,Structure (SMILES),inhibition of growth at 20 ppm [%]
1,"CCCCON(Cc1ccc(-c2noc(C(F)(F)F)n2)cc1)C(=O)C1CC1 [Compound 1.601, N-butoxy-N-[[4-[5-(trifluoromethyl)-1,2,4-oxadiazol-3-yl]phenyl]methyl]-cyclopropane-carboxamide]",≥ 80
2,"CON(C(=O)C=CC(C)=O)C(C)c1ccc(-c2noc(C(F)(F)F)n2)cc1 (centres unmarked) [Compound 1.272, N-methoxy-4-oxo-N-[1-[4-[5-(trifluoromethyl)-1,2,4-oxadiazol-3-yl]phenyl]ethyl]pent-2-enamide]",≥ 80
3,"CCCON(Cc1ccc(-c2noc(C(F)(F)F)n2)cc1)C(=O)CC [Compound 1.303, N-propoxy-N-[[4-[5-(trifluoromethyl)-1,2,4-oxadiazol-3-yl]phenyl]methyl]-propanamide]",≥ 80
4,"C=CC(=O)N(Cc1ccc(-c2noc(C(F)(F)F)n2)cc1)OCCC [Compound 1.301, N-propoxy-N-[[4-[5-(trifluoromethyl)-1,2,4-oxadiazol-3-yl]phenyl]methyl]-prop-2-enamide]",≥ 80
5,"CC=CC(=O)N(Cc1ccc(-c2noc(C(F)(F)F)n2)cc1)OCCC [Compound 1.285, N-propoxy-N-[[4-[5-(trifluoromethyl)-1,2,4-oxadiazol-3-yl]phenyl]methyl]but-2-enamide]",≥ 80
6,"CON(C(=O)C1(C)CC1)C(C)c1ccc(-c2noc(C(F)(F)F)n2)cc1 (centres unmarked) [Compound 1.268, N-methoxy-1-methyl-N-[1-[4-[5-(trifluoromethyl)-1,2,4-oxadiazol-3-yl]phenyl]ethyl]-cyclopropane-carboxamide]",≥ 80
7,"CCC(C)C(=O)N(Cc1ccc(-c2noc(C(F)(F)F)n2)cc1)OCC=C(Cl)Cl (centres unmarked) [Compound 1.542, N-(3,3-dichloroallyloxy)-2-methyl-N-[[4-[5-(trifluoromethyl)-1,2,4-oxadiazol-3-yl]phenyl]methyl]-butanamide]",≥ 80
8,"O=C(CC1CC1(F)F)N(Cc1ccc(-c2noc(C(F)(F)F)n2)cc1)CC1CC1 (centres unmarked) [Compound 1.240, N-(cyclopropylmethyl)-2-(2,2-difluorocyclopropyl)-N-[[4-[5-(trifluoromethyl)-1,2,4-oxadiazol-3-yl]phenyl]methyl]-acetamide]",≥ 80
9,"O=C(C1CC1(F)F)N(Cc1ccc(-c2noc(C(F)(F)F)n2)cc1)OCC=C(Cl)Cl (centres unmarked) [Compound 1.540, N-(3,3-dichloroallyloxy)-2,2-difluoro-N-[[4-[5-(trifluoromethyl)-1,2,4-oxadiazol-3-yl]phenyl]methyl]-cyclopropane-carboxamide]",≥ 80
10,"COCCCC(=O)N(Cc1ccc(-c2noc(C(F)(F)F)n2)cc1)OCc1ccc(Cl)cc1 [Compound 1.555, N-[(4-chlorophenyl)-methoxy]-4-methoxy-N-[[4-[5-(trifluoromethyl)-1,2,4-oxadiazol-3-yl]phenyl]methyl]-butanamide]",≥ 80
11,"CCCON(Cc1ccc(-c2noc(C(F)(F)F)n2)cc1)C(=O)CCC [Compound 1.288, N-propoxy-N-[[4-[5-(trifluoromethyl)-1,2,4-oxadiazol-3-yl]phenyl]methyl]-butanamide]",≥ 80
12,"O=C(C1=CCCC1)N(Cc1ccc(-c2noc(C(F)(F)F)n2)cc1)CC1CCCO1 (centres unmarked) [Compound 1.420, N-(tetrahydrofuran-2-ylmethyl)-N-[[4-[5-(trifluoromethyl)-1,2,4-oxadiazol-3-yl]phenyl]methyl]-cyclopentene-1-carboxamide]",≥ 80
13,"COCC(=O)N(Cc1ccc(-c2noc(C(F)(F)F)n2)cc1)OCc1ccc(Cl)cc1 [Compound 1.551, N-[(4-chlorophenyl)-methoxy]-2-methoxy-N-[[4-[5-(trifluoromethyl)-1,2,4-oxadiazol-3-yl]phenyl]methyl]-acetamide]",≥ 80
14,"O=C(CCl)N(Cc1ccc(-c2noc(C(F)(F)F)n2)cc1)OCC=C(Cl)Cl [Compound 1.538, 2-chloro-N-(3,3-dichloroallyloxy)-N-[[4-[5-(trifluoromethyl)-1,2,4-oxadiazol-3-yl]phenyl]methyl]-acetamide]",≥ 80
15,"CCCON(Cc1ccc(-c2noc(C(F)(F)F)n2)cc1)C(=O)C1CC1 [Compound 1.319, N-propoxy-N-[[4-[5-(trifluoromethyl)-1,2,4-oxadiazol-3-yl]phenyl]methyl]-cyclopropane-carboxamide]",≥ 80
16,"COCCC(=O)N(Cc1ccc(-c2noc(C(F)(F)F)n2)cc1)OCc1ccc(Cl)cc1 [Compound 1.549, N-[(4-chlorophenyl)-methoxy]-3-methoxy-N-[[4-[5-(trifluoromethyl)-1,2,4-oxadiazol-3-yl]phenyl]methyl]-propanamide]",≥ 80
17,"CC(=O)C=CC(=O)N(Cc1ccc(-c2noc(C(F)(F)F)n2)cc1)CC1CCCO1 (centres unmarked) [Compound 1.439, 4-oxo-N-(tetrahydrofuran-2-ylmethyl)-N-[[4-[5-(trifluoromethyl)-1,2,4-oxadiazol-3-yl]phenyl]methyl]-pent-2-enamide]",≥ 80
18,"COC(C)C(=O)N(Cc1ccc(-c2noc(C(F)(F)F)n2)cc1)OCC=C(Cl)Cl (centres unmarked) [Compound 1.546, N-(3,3-dichloroallyloxy)-2-methoxy-N-[[4-[5-(trifluoromethyl)-1,2,4-oxadiazol-3-yl]phenyl]methyl]-propanamide]",≥ 80
19,"CCCON(Cc1ccc(-c2noc(C(F)(F)F)n2)cc1)C(=O)COCC [Compound 1.297, 2-ethoxy-N-propoxy-N-[[4-[5-(trifluoromethyl)-1,2.4-oxadiazol-3-yl]phenyl]methyl]-acetamide]",≥ 80
20,"C#CCC(NS(=O)(=O)CC)C(=O)N(Cc1ccc(-c2noc(C(F)(F)F)n2)cc1)CC1CC1 (centres unmarked) [Compound 1.239, N-(cyclopropylmethyl)-2-(ethylsulfonylamino)-N-[[4-[5-(trifluoromethyl)-1,2,4-oxadiazol-3-yl]phenyl]methyl]-pent-4-ynamide]",≥ 80
21,"CON(C(=O)CC(C)C)C(C)c1ccc(-c2noc(C(F)(F)F)n2)cc1 (centres unmarked) [Compound 1.261, N-methoxy-3-methyl-N-[1-[4-[5-(trifluoromethyl)-1,2,4-oxadiazol-3-yl]phenyl]ethyl]-butanamide]",≥ 80
22,"CC1CC1C(=O)N(Cc1ccc(-c2noc(C(F)(F)F)n2)cc1)OCC=C(Cl)Cl (centres unmarked) [Compound 1.536, N-(3,3-dichloroallyloxy)-2-methyl-N-[[4-[5-(trifluoromethyl)-1,2,4-oxadiazol-3-yl]phenyl]methyl]-cyclopropane-carboxamide]",≥ 80
23,"CC(C)(C)CC(=O)N(Cc1ccc(-c2noc(C(F)(F)F)n2)cc1)CC1CCCO1 (centres unmarked) [Compound 1.429, 3,3-dimethyl-N-(tetrahydrofuran-2-ylmethyl)-N-[[4-[5-(trifluoromethyl)-1,2,4-oxadiazol-3-yl]phenyl]methyl]-butanamide]",≥ 80
24,"C=CC(=O)N(CCOC)Cc1ccc(-c2noc(C(F)(F)F)n2)cc1 [Compound 1.343, N-(2-methoxyethyl)-N-[[4-[5-(trifluoromethyl)-1,2,4-oxadiazol-3-yl]phenyl]methyl]prop-2-enamide]",≥ 80
25,"O=C(c1cccc(C(F)(F)F)c1)N(Cc1ccc(-c2noc(C(F)(F)F)n2)cc1)C1CC1 [Compound 1.88, N-cyclopropyl-3-(trifluoromethyl)-N-[[4-[5-(trifluoromethyl)-1,2,4-oxadiazol-3-yl]phenyl]methyl]-benzamide]",≥ 80
26,"CCC(COC)C(=O)N(Cc1ccc(-c2noc(C(F)(F)F)n2)cc1)C(C)CC (centres unmarked) [Compound 1.397, 2-(methoxymethyl)-N-sec-butyl-N-[[4-[5-(trifluoromethyl)-1,2,4-oxadiazol-3-yl]phenyl]methyl]-butanamide]",≥ 80
27,"O=C(Cc1ccccc1)N(Cc1ccc(-c2noc(C(F)(F)F)n2)cc1)CC1CC1 [Compound 1.228, N-(cyclopropylmethyl)-2-phenyl-N-[[4-[5-(trifluoromethyl)-1,2,4-oxadiazol-3-yl]phenyl]methyl]-acetamide]",≥ 80

# Tested on: Puccinia recondita f. Sp. Tritici
# Test: Fungicidal activity against Puccinia recondita f. sp. tritici / wheat / leaf disc preventative (brown rust)
# Assay type: in vivo
# Details: foliar, 200 ppm in the applied formulation, wheat leaf segments, preventative, compared to untreated control leaf disks, read-out: disease control
# Protocol: Leaf disks or leaf segments of various plant species are cut from plants grown in a greenhouse. The cut leaf disks or segments are placed in multiwell plates (24-well format) onto water agar. The leaf disks are sprayed with a test solution before (preventative) or after (curative) inoculation. Compounds to be tested are prepared as DMSO solutions (max. 10 mg/ml) which are diluted to the appropriate concentration with 0.025% Tween20 just before spraying. The inoculated leaf disks or segments are incubated under defined conditions (temperature, relative humidity, light, etc.) according to the respective test system. A single evaluation of disease level is carried out 3 to 14 days after inoculation, depending on the pathosystem. Percent disease control relative to the untreated check leaf disks or segments is then calculated.
# Fungicidal Activity Against Puccinia recondita f. Sp. Tritici/Wheat/Leaf Disc Preventative (Brown Rust)
# Wheat leaf segments cv. Kanzler were placed on agar in multiwell plates (24-well format) and sprayed with the formulated test compound diluted in water. The leaf disks were inoculated with a spore suspension of the fungus 1 day after application. The inoculated leaf segments were incubated at 19° C. and 75% relative humidity (rh) under a light regime of 12 hours light/12 hours darkness in a climate cabinet and the activity of a compound was assessed as percent disease control compared to untreated when an appropriate level of disease damage appears in untreated check leaf segments (7 to 9 days after application).
# The following compounds at 200 ppm in the applied formulation give at least 80% disease control in this test when compared to untreated control leaf disks under the same conditions, which show extensive disease development.
row,Structure (SMILES),pest or weed control at 200 ppm [%]
1,"O=C(Cc1ccc(C(F)(F)F)cc1)N(Cc1ccc(-c2noc(C(F)(F)F)n2)cc1)C1CC1 [Compound 1.140, N-cyclopropyl-N-[[4-[5-(trifluoromethyl)-1,2,4-oxadiazol-3-yl]phenyl]methyl]-2-[4-(trifluoromethyl)-phenyl]acetamide]",≥ 80
2,"CC(=O)NCC(=O)N(Cc1ccc(-c2noc(C(F)(F)F)n2)cc1)OCc1ccc(Cl)cc1 [Compound 1.552, 2-ace tamido-N-[(4-chlorophenyl)-methoxy]-N-[[4-[5-(trifluoromethyl)-1,2,4-oxadiazol-3-yl]phenyl]methyl]-acetamide]",≥ 80
